Data on two substances can be found in patent US20110268660A1, “METHOD FOR DETECTING DYSPLASIA” (priority 2008, published 2011).

The target in test [1] is T1, human EGFR (Homo sapiens, UniProt P00533).
T1 construct: purchased R&D systems 344-ER
The test is described as follows: Fluorescence polarization binding assay. To be noted: dye-labelled ligand 5 nM; human recombinant EGFR/Fc chimera 0-258 nM; 10 min at 30° C.; triplicates; read-out: Kd value towards human EGFR.
Experimental: The fluorescence polarization binding measurements were performed as triplicates in 384-well microplates in a volume of 40 μL in binding buffer (PBS, 0.01% Tween-20, pH 7.5) using a Tecan Safire fluorescence polarisation plate reader at ex646/em678 nm. The concentration of dye-labelled ligand was held constant (5 nM) and the concentrations of the target (human recombinant EGFR/Fc chimera from R&D systems, cat. no 344-ER) was varied from 0-258 nM. Binding mixtures were equilibrated in the microplate for 10 min at 30° C.
Data fitting was performed via nonlinear regression using SigmaPlot software (version 10) to obtain the Kd value.

Test [2] has as its target human recombinant EGFR/Fc chimera (R&D systems, cat. no 344-ER) (human) (UniProt P00533). Put plainly: fluorescence polarization, 5 nM dye-labelled ligand, EGFR/Fc titrated 0-258 nM, in solution. (In general: Polarisation of emitted light reports the rotation of a fluorescent probe.)

A word on the Kd: it is the free concentration of one partner at which half of the binding sites on the other are occupied at equilibrium, for simple one-to-one binding.

Take “anti-EGFR Affibody His6-ZEGFR:1907-Cys(Cy5**) [Compound 14]”: the Kd in test [1] was 4.1 nM.
Turning to “anti-EGFR Affibody His6-ZEGFR:1907-Cys(Cy5**) (Compound 14) (designed binder)”, in test [2], the Kd stood at 4.1 nM.
